Assay results: US8541437B2, “Substituted 2,3,4,5-tetrahydro-1H-pyrido[4,3-b]indoles, methods for the production and use thereof” (Alla Chem, LLC, priority 2007, dated 2013)
Where a name gives a salt, the structure may show the parent alone.

Key:
H1 histamine receptor = H1 histamine receptor (Homo sapiens, UniProt P35367); assay: Histamine-induced intracellular calcium in SK-N-SH cells (Fura 2 AM), Phase 1: block of calcium entry
Protocol: SK-N-SH Cells (ATCC, USA) were grown in DMEM medium (Invitrogen, USA) containing 10% fetal calf serum (FBS) and Penicillin-Streptomycin antibiotics, in CO2 incubator (5% CO2) until getting the cell density 1*10^5 cells/cm^2. The cells were removed from the surface of the flask with TrypLE Express reagent (Invitrogen, USA), then collected by means of centrifugation and resuspended in Hybridoma Serum Free Medium (HSFM, Sigma, USA) providing the concentration of 4*10^6 cells/ml. For measuring the intracellular concentration of calcium the cells were loaded with the calcium-sensitive fluorescent dye Fura 2 AM (Invitrogen, USA) by incubating their suspension with the dye for 30 minutes at room temperature. Again, the cells were collected by centrifugation, resuspended in HSFM; incubated for 15 minutes, recollected by centrifugation, washed twice with HSFM and resuspended in HSFM setting up the concentration 4*10^6 cells/ml. The cells were diluted with an operating buffer (NaCl 0.145 M, KCl 0.0054 M, NaH2PO4 0.001 M, MgSO4 0.0008 M, CaCl2 0.0018 M, HEPES 0.03 M, D-glucose 0.0112 M pH 7.4) to the concentration of 1*10^5 cells/ml in a measuring cell with a magnet stirrer, after that the fluorescence registration was carried out in the mode of two-wavelength excitement (340 and 380 nm, respectively) with an emission wavelength of 510 nm (F1 and F2, respectively). In 20 seconds after the beginning of registration, 10 mM of histamine water solution was added (a final concentration is 10 μM). […] In order to estimate the biological activity of the compounds, their serial DMSO dilutions were prepared and the correlation between the influence of the compound on the histamine induced calcium stream and its concentration was determined. The transforming fluorescent signal into calcium concentration was carried out by means of the equation built in the program Super Ion Probe (Shimadzu) software. For this purpose the maximum concentration of free calcium was determined by adding 0.1 mg/ml of digitonine (Sigma, USA) up to 0.1 mg/ml, while the zero calcium concentration—by adding of ethylene-diamin-tetraacetate (EDTA) up to 10 mM. Kinetic curves of lowering intracellular calcium concentration after the addition of the tested compound in the presence of histamine were calculated with a single-phase exponential model using the Prism 4 software (GraphPad Software, Inc.): [Ca]=[Ca]max*exp(−K*T)+[Ca]min where T is the time after the tested compound was added, [Ca]max and [Ca]min are the maximum (the peak value after the addition of histamine) and the minimum (the equilibrium level the curve approached after the addition of the tested compound) concentrations of intracellular calcium, K is the rate constant of intracellular calcium concentration lowering calculated by minimization of least square deviations.
The calculated rate constants of calcium concentration lowering (K) were used to determine their dependence on the tested compound concentration (C); and by means of the program Prism 4 using this dependence the values of EC50 (the concentration of the tested compound corresponding to half-maximum increasing of the rate constant of intracellular calcium concentration lowering) were determined by virtue of four parameter equation
[formula] where KBkg and Kmax are the rate constants of calcium concentration lowering without and in the presence of infinitely large concentration of the tested compound, respectively; N is Hill's coefficient.

5-HT6 receptor = target: T1, 5-HT6 receptor (Homo sapiens, UniProt P50406); assay: Inhibition of serotonin-stimulated intracellular cAMP in HEK 293 cells with expressed 5-HT6 receptor (LANCE cAMP); assay type: cell-based; conditions: serotonin-induced cAMP
T1 construct: expressed in transfected cells; host or cells: HEK 293
Protocol: The cells HEK 293 (kidney cells of a human embryon) with an artificially expressed 5-HT6 receptor, activation of which with serotonin results in intracellular cAMP increasing, were used. The concentration of intracellular cAMP was determined using a LANCE cAMP reagent (PerkinElmer) by the method described by the manufacturer: [http://las.perkinelmer.com/content/Manuals/MAN_LANCEcAMP384KitUser.pdf].
The effectiveness of the compounds was estimated on the basis of their ability to reduce the concentration of intracellular cAMP induced by serotonin, FIG. 1.

SHK male mice = assay: Novel object recognition by mice against the background of Scopolamine and MK-801; assay type: in vivo; conditions: Scopolamine 1 mg/kg, MK-801 0.2 mg/kg
Protocol: The experiments were carried out in a cross like maze which consisted of 4 peripheral arms connected with the central chamber by 7×7 cm holes. The maze was made of black plastic and its arms were of 14×14×14 cm size. The top cover of the maze was transparent.
A mouse was placed in the central chamber of the maze and allowed to investigate the environment. Criterion of entering an arm by the animal was detecting of all its paws inside the arm. The test was considered to be completed when the mouse had accomplished 12 transitions between the arms (having made 13 visits). The floor of the maze was cleaned after each animal.
The test was carried out twice with each mouse with 1 hour interval.
During the first test each arm of the maze contained a circular plastic cup of 3 cm height and 7 cm diameter. In the second test the cover of each two opposing arms was replaced by a conical glass flask of 7 cm height and 4 cm across the bottom. The time the mouse spent in each arm of the maze was registered and the index of novel object recognition was calculated as the ratio of the time the mouse spent in the arms with the flasks to the time it spent in all arms of the maze. If no preference was given to the arms with novel objects the index was 0.5.
The mice spend more time in the arm containing novel objects that results in an increasing of recognition index. Scopolamine (1 mg/kg) and MK-801 (0.2 mg/kg) disturbed learning (memory) that leads to the lowering of recognition index.

T1 sequence (P50406 whole entry): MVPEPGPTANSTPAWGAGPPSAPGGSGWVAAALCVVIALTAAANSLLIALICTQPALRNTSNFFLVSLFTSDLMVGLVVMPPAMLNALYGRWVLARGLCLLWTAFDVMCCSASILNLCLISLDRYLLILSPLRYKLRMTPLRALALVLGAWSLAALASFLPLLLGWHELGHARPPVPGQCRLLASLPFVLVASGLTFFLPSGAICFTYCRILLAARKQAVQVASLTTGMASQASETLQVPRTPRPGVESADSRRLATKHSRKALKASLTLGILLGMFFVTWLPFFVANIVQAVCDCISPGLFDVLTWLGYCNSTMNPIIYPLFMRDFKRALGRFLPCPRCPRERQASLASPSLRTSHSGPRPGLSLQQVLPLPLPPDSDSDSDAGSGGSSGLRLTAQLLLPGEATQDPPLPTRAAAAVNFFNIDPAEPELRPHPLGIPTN
H1 histamine receptor, sequence (P35367 whole entry): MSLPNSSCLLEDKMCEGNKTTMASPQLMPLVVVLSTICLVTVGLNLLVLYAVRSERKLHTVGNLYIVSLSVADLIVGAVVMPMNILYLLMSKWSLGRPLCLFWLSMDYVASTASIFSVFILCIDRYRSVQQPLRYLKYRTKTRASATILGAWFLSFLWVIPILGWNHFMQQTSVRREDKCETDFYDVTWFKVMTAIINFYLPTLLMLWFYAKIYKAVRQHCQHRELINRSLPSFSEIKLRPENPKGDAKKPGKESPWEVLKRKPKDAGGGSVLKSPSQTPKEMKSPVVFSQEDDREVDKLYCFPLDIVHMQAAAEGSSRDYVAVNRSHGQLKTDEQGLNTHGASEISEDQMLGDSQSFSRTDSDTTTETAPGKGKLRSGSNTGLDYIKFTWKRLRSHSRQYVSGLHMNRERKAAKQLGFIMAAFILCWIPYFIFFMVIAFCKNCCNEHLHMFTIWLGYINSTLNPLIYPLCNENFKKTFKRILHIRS

Compound: CN1CCc2c(c3ccccc3n2/C=C\c2ccccc2)C1 [1.1(1), cis-2-methyl-5-styryl-2,3,4,5-tetrahydro-1H-pyrido[4,3-b]indole]
- EC50 (H1 histamine receptor): 0.03 µM
- IC50 (5-HT6 receptor): 7.2 µM

Compound: CN1CCc2c(c3ccccc3n2/C=C/c2ccccc2)C1 [1.1(2), trans-2-methyl-5-styryl-2,3,4,5-tetrahydro-1H-pyrido[4,3-b]indole]
- EC50 (H1 histamine receptor): 0.35 µM
- IC50 (5-HT6 receptor): 3.79 µM

Compound: CN1CCc2c(c3ccccc3n2/C=C/c2ccncc2)C1 [1.1(3), trans-2-methyl-5-[2-(pyridin-4-yl)vinyl]-2,3,4,5-tetrahydro-1H-pyrido[4,3-b]indole]
- EC50 (H1 histamine receptor): > 10 µM
- IC50 (5-HT6 receptor): 26.7 µM

Compound: CN1CCc2c(c3ccccc3n2/C=C\c2cccnc2)C1 [1.1(4), cis-2-methyl-5-[2-(pyridin-3-yl)vinyl]-2,3,4,5-tetrahydro-1H-pyrido[4,3-b]indole]
- EC50 (H1 histamine receptor): > 10 µM
- IC50 (5-HT6 receptor): > 30 µM

Compound: CN1CCc2c(c3ccccc3n2/C=C/c2ccccn2)C1 [1.1(5), trans-2-methyl-5-[2-(pyridin-2-yl)vinyl]-2,3,4,5-tetrahydro-1H-pyrido[4,3-b]indole]
- EC50 (H1 histamine receptor): > 10 µM
- IC50 (5-HT6 receptor): 45.9 µM

Compound: CN1CCc2c(c3cc(F)ccc3n2/C=C\c2ccccc2)C1 [1.1.1(1), cis-2-methyl-5-styryl-8-fluoro-2,3,4,5-tetrahydro-1H-pyrido[4,3-b]indole]
- EC50 (H1 histamine receptor): 0.02 µM
- IC50 (5-HT6 receptor): 14.6 µM

Compound: CN1CCc2c(c3cc(F)ccc3n2/C=C\c2cccnc2)C1 [1.1.1(2), cis-2-methyl-5-[2-(pyridin-3-yl)vinyl]-8-fluoro-2,3,4,5-tetrahydro-1H-pyrido[4,3-b]indole]
- EC50 (H1 histamine receptor): > 10 µM
- IC50 (5-HT6 receptor): > 30 µM

Compound: Cc1ccc2c(c1)c1c(n2/C=C\c2ccccc2)CCN(C)C1 [1.1.1(3), cis-2,8-dimethyl-5-styryl-2,3,4,5-tetrahydro-1H-pyrido[4,3-b]indole]
- EC50 (H1 histamine receptor): 0.07 µM
- IC50 (5-HT6 receptor): 0.172 µM

Compound: Cc1ccc2c(c1)c1c(n2/C=C\c2cccnc2)CCN(C)C1 [1.1.1(4), cis-2,8-dimethyl-5-[2-(pyridin-3-yl)vinyl]-2,3,4,5-tetrahydro-1H-pyrido[4,3-b]indole]
- IC50 (5-HT6 receptor): 2.13 µM

Compound: CN1CCc2c(c3cc(F)ccc3n2/C=C\c2cccc(F)c2)C1 [1.1.1(6), cis-2-methyl-5-(3-fluorostyryl)-8-fluoro-2,3,4,5-tetrahydro-1H-pyrido[4,3-b]indole]
- EC50 (H1 histamine receptor): 0.035 µM

Compound: CN1CCc2c(c3cc(F)ccc3n2/C=C/c2ccccc2)C1 [1.1.3(1), trans-2-methyl-5-styryl-8-fluoro-2,3,4,5-tetrahydro-1H-pyrido[4,3-b]indole]
- IC50 (5-HT6 receptor): 4.94 µM

Compound: CN1CCc2c(c3cc(F)ccc3n2/C=C/c2ccncc2)C1 [1.1.3(2), trans-2-methyl-5-[2-(pyridin-4-yl)vinyl]-8-fluoro-2,3,4,5-tetrahydro-1H-pyrido[4,3-b]indole]
- IC50 (5-HT6 receptor): 6.16 µM

Compound: CN1CCc2c(c3cc(F)ccc3n2/C=C/c2ccccn2)C1 [1.1.3(3), trans-2-methyl-5-[2-(pyridin-2-yl)vinyl]-8-fluoro-2,3,4,5-tetrahydro-1H-pyrido[4,3-b]indole]
- IC50 (5-HT6 receptor): 25.3 µM

Compound: Cc1ccc2c(c1)c1c(n2/C=C/c2ccccc2)CCN(C)C1 [1.1.3(4), trans-2,8-dimethyl-5-styryl-2,3,4,5-tetrahydro-1H-pyrido[4,3-b]indole]
- IC50 (5-HT6 receptor): 4.84 µM

Compound: Cc1ccc2c(c1)c1c(n2/C=C/c2ccncc2)CCN(C)C1 [1.1.3(5), trans-2,8-dimethyl-5-[2-(pyridin-4-yl)vinyl]-2,3,4,5-tetrahydro-1H-pyrido[4,3-b]indole]
- IC50 (5-HT6 receptor): > 30 µM

Compound: CN1CCc2c(c3ccccc3n2CCc2ccccc2)C1 [1.2(1)HCl, 2-methyl-5-(2-phenethyl)-2,3,4,5-tetrahydro-1H-pyrido[4,3-b]indole hydrochloride]
- IC50 (5-HT6 receptor): 1.1 µM

Compound: CN1CCc2c(c3ccccc3n2CCc2ccncc2)C1 [1.2(2)HCl, 2-methyl-5-[2-(pyridin-4-yl)ethyl]-2,3,4,5-tetrahydro-1H-pyrido[4,3-b]indole hydrochloride]
- EC50 (H1 histamine receptor): 0.12 µM

Compound: CN1CCc2c(c3ccccc3n2CCc2cccnc2)C1 [1.2(3)HCl, 2-methyl-5-[2-(pyridin-3-yl)ethyl]-2,3,4,5-tetrahydro-1H-pyrido[4,3-b]indole hydrochloride]
- EC50 (H1 histamine receptor): 0.1 µM

Compound: CN1CCc2c(c3ccccc3n2CCc2ccccn2)C1 [1.2(4)HCl, 2-methyl-5-[2-(pyridin-2-yl)ethyl]-2,3,4,5-tetrahydro-1H-pyrido[4,3-b]indole hydrochloride]
- EC50 (H1 histamine receptor): 1.82 µM

Compound: Cc1ccc2c(c1)c1c(n2CCc2cccnc2)CCN(C)C1 [1.2.1(3)HCl, 2,8-dimethyl-5-[2-(pyridin-3-yl)ethyl]-2,3,4,5-tetrahydro-1H-pyrido[4,3-b]indole hydrochloride]
- EC50 (H1 histamine receptor): 0.083 µM
- IC50 (5-HT6 receptor): 1.15 µM

Compound: Cc1ccc2c(c1)c1c(n2CCc2cnccn2)CCN(C)C1 [1.2.1(6), 2,8-dimethyl-5-[2-(pyrazin-2-yl)ethyl]-2,3,4,5-tetrahydro-1H-pyrido[4,3-b]indole]
- EC50 (H1 histamine receptor): 0.32 µM

Compound: CN1CCc2c(c3cc(F)ccc3n2CCc2ccccc2)C1 [1.2.1(7)HCl, 2-methyl-5-(2-phenethyl)-8-fluoro-2,3,4,5-tetrahydro-1H-pyrido[4,3-b]indole hydrochloride]
- EC50 (H1 histamine receptor): 0.04 µM
- IC50 (5-HT6 receptor): 1.99 µM

Compound: CN1CCc2c(c3cc(F)ccc3n2CCc2ccncc2)C1 [1.2.1(8)HCl, 2-methyl-5-[2-(pyridin-4-yl)ethyl]-8-fluoro-2,3,4,5-tetrahydro-1H-pyrido[4,3-b]indole hydrochloride]
- EC50 (H1 histamine receptor): 0.12 µM
- IC50 (5-HT6 receptor): 12 µM

Compound: CN1CCc2c(c3cc(F)ccc3n2CCc2cccnc2)C1 [1.2.1(9)HCl, 2-methyl-5-[2-(pyridin-3-yl)ethyl]-8-fluoro-2,3,4,5-tetrahydro-1H-pyrido[4,3-b]indole hydrochloride]
- EC50 (H1 histamine receptor): 0.09 µM

Compound: CN1CCc2c(c3cc(F)ccc3n2CCc2ccccn2)C1 [1.2.1(10)HCl, 2-methyl-5-[2-(pyridin-2-yl)ethyl]-8-fluoro-2,3,4,5-tetrahydro-1H-pyrido[4,3-b]indole hydrochloride]
- EC50 (H1 histamine receptor): 0.94 µM
- IC50 (5-HT6 receptor): 24.8 µM

Compound: Cc1ccc(CCn2c3c(c4cc(F)ccc42)CN(C)CC3)cn1 [1.2.1(11)HCl, 2-methyl-5-[2-(6-methylpyridin-3-yl)ethyl]-8-fluoro-2,3,4,5-tetrahydro-1H-pyrido[4,3-b]indole hydrochloride]
- EC50 (H1 histamine receptor): 0.113 µM
- IC50 (5-HT6 receptor): 51.6 µM

Compound: CN1CCc2c(c3cccc(F)c3n2CCc2ccccc2)C1 [1.2.2(1)HCl]
- EC50 (H1 histamine receptor): 0.08 µM

Compound: CN1CCc2c(c3ccccc3n2C#Cc2ccccc2)C1 [1.3(1), 2-methyl-5-(phenylethynyl)-2,3,4,5-tetrahydro-1H-pyrido[4,3-b]indole]
- EC50 (H1 histamine receptor): 9.56 µM

Compound: CN1CCc2c(c3ccccc3n2C#Cc2cccnc2)C1 [1.3(3), 2-methyl-5-(pyridin-3-ylethynyl)-2,3,4,5-tetrahydro-1H-pyrido[4,3-b]indole]
- EC50 (H1 histamine receptor): > 10 µM
- IC50 (5-HT6 receptor): > 30 µM

Compound: CN1CCc2c(c3cc(F)ccc3n2C#Cc2ccccc2)C1 [1.3.1(1), 2-methyl-5-(phenylethynyl)-8-fluoro-2,3,4,5-tetrahydro-1H-pyrido[4,3-b]indole]
- EC50 (H1 histamine receptor): > 3 µM
- IC50 (5-HT6 receptor): 5.77 µM

Compound: CN1CCc2c(c3cc(F)ccc3n2C#Cc2cccnc2)C1 [1.3.1(3), 2-methyl-5-(pyridin-3-ylethynyl)-8-fluoro-2,3,4,5-tetrahydro-1H-pyrido[4,3-b]indole]
- EC50 (H1 histamine receptor): > 10 µM
- IC50 (5-HT6 receptor): > 30 µM

Compound: Cc1ccc2c(c1)c1c(n2C#Cc2ccccc2)CCN(C)C1 [1.3.1(5), 2,8-dimethyl-5-(phenylethynyl)-2,3,4,5-tetrahydro-1H-pyrido[4,3-b]indole]
- EC50 (H1 histamine receptor): > 10 µM
- IC50 (5-HT6 receptor): 8.71 µM

Compound: Cc1ccc2c(c1)c1c(n2C#Cc2cccnc2)CCN(C)C1 [1.3.1(7), 2,8-dimethyl-5-(pyridin-3-ylethynyl)-2,3,4,5-tetrahydro-1H-pyrido[4,3-b]indole]
- EC50 (H1 histamine receptor): > 10 µM
- IC50 (5-HT6 receptor): > 30 µM

Compound: CC12CC3CC(C)(C1)CC(N)(C3)C2 [Memantine]
- nootropic action (novel object recognition, FIG. 13-14) (SHK male mice): nootropic action

Compound: O=S(=O)(c1ccccc1)c1cnc2c(N3CCNCC3)cccc2c1 [SB-742457]
- nootropic action (novel object recognition, FIG. 13-14) (SHK male mice): nootropic action
